Measurements as given in patent US4278681A, “Antibacterial amide compounds and means for using the same” (Warner-Lambert Co., priority 1980, dated 1981).
Converted amounts (≈) assume the structure as drawn.

Assays:
Experiment in all cases: Minimal Inhibitory Concentration by Microtitration, dilution in TSB
Type in all cases: cell-based
[1] = system: Klebsiella pneumoniae MGH-2; details: MGH2, TSB (Trypticase soy broth)
From the text: (§1) Minimal Inhibitory Concentration by Microtitration (μg/ml)
(§2) Dilution in TSB (Trypticase soy broth).

[2] = system: Serratia marcescens IMM-16; details: IMM16, TSB (Trypticase soy broth)
From the text: as §1, §2

[3] = system: Pseudomonas aeruginosa UI-18; details: UI18, TSB (Trypticase soy broth)
From the text: as §1, §2

[4] = system: Pseudomonas aeruginosa BRK 12-4-4; details: BRK1244, TSB (Trypticase soy broth)
From the text: as §1, §2

[5] = system: Enterobacter cloacae IMM-11; details: IMM11, TSB (Trypticase soy broth)
From the text: as §1, §2

| SMILES | MIC [1] [µg/mL] | MIC [2] [µg/mL] | MIC [3] [µg/mL] | MIC [4] [µg/mL] | MIC [5] [µg/mL] |
| --- | --- | --- | --- | --- | --- |
| CC(=O)N1CCC[C@H]1C(=O)Nc1ccc(-c2ccc(C(=O)N[C@@H](C(=O)N[C@@H]3C(=O)N4[C@@H]3SC(C)(C)[C@@H]4C(=O)O)c3ccc(O)cc3)c(=O)[nH]2)cc1 | 12.5 (≈ 17.4 µM) | 6.3 (≈ 8.79 µM) | 1.6 (≈ 2.23 µM) | 1.6 (≈ 2.23 µM) | 6.3 (≈ 8.79 µM) |
| CC(=O)N[C@@H](CCC(N)=O)C(=O)Nc1ccc(-c2ccc(C(=O)N[C@@H](C(=O)N[C@@H]3C(=O)N4[C@@H]3SC(C)(C)[C@@H]4C(=O)O)c3ccc(O)cc3)c(=O)[nH]2)cc1 | 12.5 (≈ 16.7 µM) | 3.1 (≈ 4.15 µM) | 1.6 (≈ 2.14 µM) | 3.1 (≈ 4.15 µM) | 3.1 (≈ 4.15 µM) |
| CC(=O)N1CC(O)C[C@H]1C(=O)Nc1ccc(-c2ccc(C(=O)N[C@@H](C(=O)N[C@@H]3C(=O)N4[C@@H]3SC(C)(C)[C@@H]4C(=O)O)c3ccc(O)cc3)c(=O)[nH]2)cc1 (some centres unmarked) | 12.5 (≈ 17.1 µM) | 6.3 (≈ 8.6 µM) | 1.6 (≈ 2.18 µM) | 3.1 (≈ 4.23 µM) | 3.1 (≈ 4.23 µM) |
| CC(=O)N[C@@H](C)C(=O)N[C@@H](C)C(=O)Nc1ccc(-c2ccc(C(=O)N[C@@H](C(=O)N[C@@H]3C(=O)N4[C@@H]3SC(C)(C)[C@@H]4C(=O)O)c3ccc(O)cc3)c(=O)[nH]2)cc1 | 25 (≈ 32.8 µM) | 6.3 (≈ 8.27 µM) | 3.1 (≈ 4.07 µM) | 6.3 (≈ 8.27 µM) | 12.5 (≈ 16.4 µM) |
| CC(=O)OC1C[C@@H](C(=O)Nc2ccc(-c3ccc(C(=O)N[C@@H](C(=O)N[C@@H]4C(=O)N5[C@@H]4SC(C)(C)[C@@H]5C(=O)O)c4ccc(O)cc4)c(=O)[nH]3)cc2)N(C(C)=O)C1 (some centres unmarked) | 12.5 (≈ 16.1 µM) | 6.3 (≈ 8.13 µM) | 1.6 (≈ 2.07 µM) | 1.6 (≈ 2.07 µM) | 6.3 (≈ 8.13 µM) |
| CC(=O)N1CC(=O)C[C@H]1C(=O)Nc1ccc(-c2ccc(C(=O)N[C@@H](C(=O)N[C@@H]3C(=O)N4[C@@H]3SC(C)(C)[C@@H]4C(=O)O)c3ccc(O)cc3)c(=O)[nH]2)cc1 | 25 (≈ 34.2 µM) | 12.5 (≈ 17.1 µM) | 3.1 (≈ 4.24 µM) | 6.3 (≈ 8.62 µM) | 12.5 (≈ 17.1 µM) |
| CC(=O)O[C@@H]1C[C@H](C(=O)Nc2ccc(-c3ccc(C(=O)N[C@@H](C(=O)N[C@@H]4C(=O)N5[C@@H]4SC(C)(C)[C@@H]5C(=O)O)c4ccc(O)cc4)c(=O)[nH]3)cc2)N(C(C)=O)C1 | 25 (≈ 32.3 µM) | 12.5 (≈ 16.1 µM) | 3.1 (≈ 4 µM) | 6.3 (≈ 8.13 µM) | 12.5 (≈ 16.1 µM) |
| COC1C[C@@H](C(=O)Nc2ccc(-c3ccc(C(=O)N[C@@H](C(=O)N[C@@H]4C(=O)N5[C@@H]4SC(C)(C)[C@@H]5C(=O)O)c4ccc(O)cc4)c(=O)[nH]3)cc2)N(C(C)=O)C1 (some centres unmarked) | 25 (≈ 33.5 µM) | 12.5 (≈ 16.7 µM) | 3.1 (≈ 4.15 µM) | 6.3 (≈ 8.44 µM) | 12.5 (≈ 16.7 µM) |
| CC(=O)N1CC=CC1C(=O)Nc1ccc(-c2ccc(C(=O)N[C@@H](C(=O)N[C@@H]3C(=O)N4[C@@H]3SC(C)(C)[C@@H]4C(=O)O)c3ccc(O)cc3)c(=O)[nH]2)cc1 (some centres unmarked) | 12.5 (≈ 17.5 µM) | 12.5 (≈ 17.5 µM) | 3.1 (≈ 4.34 µM) | 3.1 (≈ 4.34 µM) | 6.3 (≈ 8.81 µM) |
| CCC(=O)OC1C[C@@H](C(=O)Nc2ccc(-c3ccc(C(=O)N[C@@H](C(=O)N[C@@H]4C(=O)N5[C@@H]4SC(C)(C)[C@@H]5C(=O)O)c4ccc(O)cc4)c(=O)[nH]3)cc2)N(C(C)=O)C1 (some centres unmarked) | 12.5 (≈ 15.8 µM) | 6.3 (≈ 7.99 µM) | 1.6 (≈ 2.03 µM) | 3.1 (≈ 3.93 µM) | 6.3 (≈ 7.99 µM) |
| CN1C(=O)CC[C@H]1C(=O)Nc1ccc(-c2ccc(C(=O)N[C@@H](C(=O)N[C@@H]3C(=O)N4[C@@H]3SC(C)(C)[C@@H]4C(=O)O)c3ccc(O)cc3)c(=O)[nH]2)cc1 | 6.3 (≈ 8.96 µM) | 6.3 (≈ 8.96 µM) | 0.8 (≈ 1.14 µM) | 1.6 (≈ 2.28 µM) | 3.1 (≈ 4.41 µM) |
| CC(=O)NCCCC[C@H](NC(C)=O)C(=O)Nc1ccc(-c2ccc(C(=O)N[C@@H](C(=O)N[C@@H]3C(=O)N4[C@@H]3SC(C)(C)[C@@H]4C(=O)O)c3ccc(O)cc3)c(=O)[nH]2)cc1 | 25 (≈ 31.7 µM) | 50 (≈ 63.3 µM) | 6.3 (≈ 7.98 µM) | 6.3 (≈ 7.98 µM) | 12.5 (≈ 15.8 µM) |
| CC1(C)S[C@@H]2[C@H](NC(=O)[C@H](NC(=O)c3ccc(-c4ccc(NC(=O)CN5CCCC5=O)cc4)[nH]c3=O)c3ccc(O)cc3)C(=O)N2[C@H]1C(=O)O | 6.3 (≈ 8.96 µM) | 6.3 (≈ 8.96 µM) | 3.1 (≈ 4.41 µM) | 3.1 (≈ 4.41 µM) | 3.1 (≈ 4.41 µM) |

The remaining lines, values ahead:

| MIC [1] [µg/mL] | MIC [2] [µg/mL] | MIC [3] [µg/mL] | MIC [4] [µg/mL] | MIC [5] [µg/mL] | SMILES |
| --- | --- | --- | --- | --- | --- |
| 3.1 (≈ 4.49 µM) | 3.1 (≈ 4.49 µM) | 0.8 (≈ 1.16 µM) | 1.6 (≈ 2.32 µM) | 1.6 (≈ 2.32 µM) | CC(=O)N[C@@H](C)C(=O)Nc1ccc(-c2ccc(C(=O)N[C@@H](C(=O)N[C@@H]3C(=O)N4[C@@H]3SC(C)(C)[C@@H]4C(=O)O)c3ccc(O)cc3)c(=O)[nH]2)cc1 |
| 3.1 (≈ 4.4 µM) | 3.1 (≈ 4.4 µM) | 1.6 (≈ 2.27 µM) | 3.1 (≈ 4.4 µM) | 6.3 (≈ 8.94 µM) | CC(=O)NCCCC(=O)Nc1ccc(-c2ccc(C(=O)N[C@@H](C(=O)N[C@@H]3C(=O)N4[C@@H]3SC(C)(C)[C@@H]4C(=O)O)c3ccc(O)cc3)c(=O)[nH]2)cc1 |
| 6.3 (≈ 9.31 µM) | 3.1 (≈ 4.58 µM) | 1.6 (≈ 2.36 µM) | 1.6 (≈ 2.36 µM) | 3.1 (≈ 4.58 µM) | C[C@H](NC=O)C(=O)Nc1ccc(-c2ccc(C(=O)N[C@@H](C(=O)N[C@@H]3C(=O)N4[C@@H]3SC(C)(C)[C@@H]4C(=O)O)c3ccc(O)cc3)c(=O)[nH]2)cc1 |
| 6.3 (≈ 9.15 µM) | 3.1 (≈ 4.5 µM) | 3.1 (≈ 4.5 µM) | 1.6 (≈ 2.32 µM) | 1.6 (≈ 2.32 µM) | CC1(C)S[C@@H]2[C@H](NC(=O)[C@H](NC(=O)c3ccc(-c4ccc(NC(=O)[C@@H]5CCC(=O)N5)cc4)[nH]c3=O)c3ccc(O)cc3)C(=O)N2[C@H]1C(=O)O |
| 6.3 (≈ 9.11 µM) | 3.1 (≈ 4.48 µM) | 1.6 (≈ 2.31 µM) | 1.6 (≈ 2.31 µM) | 6.3 (≈ 9.11 µM) | C[C@H](NC(N)=O)C(=O)Nc1ccc(-c2ccc(C(=O)N[C@@H](C(=O)N[C@@H]3C(=O)N4[C@@H]3SC(C)(C)[C@@H]4C(=O)O)c3ccc(O)cc3)c(=O)[nH]2)cc1 |
| 6.3 (≈ 8.28 µM) | 6.3 (≈ 8.28 µM) | 0.8 (≈ 1.05 µM) | 0.8 (≈ 1.05 µM) | 1.6 (≈ 2.1 µM) | CC(=O)N1CC(OC=O)C[C@H]1C(=O)Nc1ccc(-c2ccc(C(=O)N[C@@H](C(=O)N[C@@H]3C(=O)N4[C@@H]3SC(C)(C)[C@@H]4C(=O)O)c3ccc(O)cc3)c(=O)[nH]2)cc1 (some centres unmarked) |
